Laboratory results taken from publication PMC8321240, “Cell-Type-Specific High Throughput Toxicity Testing in Human Midbrain Organoids” (Frontiers in Molecular Neuroscience, 2021).
Entries after “also recorded” stand apart in the source; their conditions may differ.

Assays:
[1] = test system: TH+ dopaminergic and Map2+ general neurons in AMOs; assay: Dose-response analysis, TH and Map2 content by high content imaging; format: cell-based, human; conditions: 48 h + 6 days
Protocol: All processing steps were conducted in an HTS-compatible automated liquid handling system (ALHS, a Biomek FXP liquid handling station). To quantify different cellular subpopulations within the AMOs, we employed our previously described (Renner et al., [2020], [2021b]) ALHS-compatible workflow for combined whole-mount staining and clearing, with minor modifications. We fixed the AMOs with 4% PFA (VWR) for 10–15 min and stained the entire aggregates with primary and secondary antibodies for 6 days each. The antibodies used in this study were as follows. Primary: mouse anti-Map2 (1:1,000, Merck Millipore, cat#: MAB3418) and rabbit anti-TH (1:500, Abcam, cat#: ab112). Secondary: donkey anti-mouse IgG, Alexa Fluor 488 conjugated (1:1,000, Thermo Fisher, cat#: A-21202) and donkey anti-rabbit IgG, Alexa Fluor 647 conjugated (1:1,000, Thermo Fisher, cat#: A-31573). The antibodies were diluted in blocking and permeabilization solution consisting of 6% BSA, 0.5% Triton-X 100 (Roth), 0.1% (w/v) sodium azide (Sigma-Aldrich) in PBS (Sigma-Aldrich) and immediately added after fixation following a triple rinse with PBS. We renewed the antibody solutions once after three days. As a nuclear counter stain, we added DAPI (1 μg/ml, Sigma-Aldrich) to the solution containing the secondary antibodies. Between primary and secondary antibody application and after finishing the secondary antibody incubation, we washed the samples overnight with 0.1% Triton X-100 in PBS, with a total of five exchanges of the washing solution. After the whole-mount staining, we performed BABB-based tissue clearing (Dent et al., [1989]) to allow image acquisition with single-cell resolution of the entire aggregates. For this purpose, we first dehydrated the AMOs via a stepwise methanol (Roth) series (25%, 50%, 70%, 90%, and 100%, each for 15 min). For clearing and imaging, we transferred them to organic solvent-resistant cyclo-olefin 96-well flat-bottom plates (“Screenstar”, Greiner Bio-One). Finally, we incubated the samples for 30 min in 1:1 (v/v) methanol/BABB (BABB consisted of benzyl alcohol (Sigma-Aldrich) and benzyl benzoate (Sigma-Aldrich) at a 1:1 (v/v) ratio) and then kept them in 100% BABB in the dark for storage and subsequent automated high content confocal fluorescent analysis.
We prepared and treated the AMOs with the compounds as described for the primary viability screen. On day 50, after 48 h of compound incubation, we replaced the medium with standard AMO medium and maintained the AMOs for 6 additional days under standard culture conditions. This additional time allows the cells killed by the compounds to be cleared from the aggregates. After the 6 days, we fixed the organoids with 4% PFA, whole-mount-stained them for TH and Map2, and tissue-cleared them as described above. To achieve uniform aggregate positioning within the wells before imaging, we tilted the plates off the horizontal plane at 60 degrees for a minimum of 5 min. We performed automated image acquisition of entire 96-well plates on an Operetta high content imager (Perkin Elmer) and analyzed images in the Harmony 4.1 software and/or Columbus version 2.6.0 as previously described (Renner et al., [2020]), with adjustments to account for the individual properties of the staining and samples. We acquired three medial planes for each organoid, spaced 36.6 μm apart to avoid double-sampling individual morphological features. For the analysis, we defined the organoid region in each image by summing all channels, removed small localized features with a median filter (10 px), and identified putative organoids/regions of interest (ROIs) with the “find image region” function. To identify bona fide AMOs and exclude image artifacts and dust, we selected the ROIs with an area >9,000 μm^2, roundness >0.4, and mean DAPI intensity >190 arbitrary brightness units (abu).

[2] = test system: automated midbrain organoids (AMOs); assay: Dose-response analysis, ATP-based overall AMO viability; format: cell-based, human; conditions: 0.01-1,000 μM, 48 h + 6 days; viability, Map2 and TH readouts
Protocol: We cultured AMOs for 47 days in our automated system as described above. On day 47, we exchanged the organoid medium to a minimal tox medium (TM, consisting of DMEM/F-12 with 1% N2 supplement and 1% penicillin/streptomycin/glutamine) to reduce possible interference from antioxidants in the B27 media supplement. The next day, we treated the AMOs with the compounds from the library at a concentration of 100 μM in TM with some deviations due to solubility (see Supplementary Table 1 for a complete list of compounds including their final concentrations in the screen). DMSO control samples contained 0.5% (v/v) DMSO, which is equivalent to the amount of solvent in the samples that received compound treatment. After 48 h of incubation with the compounds, we either directly processed the organoids for the 48-h time point or renewed the compounds in TM once to achieve 96 h of incubation. Following either 48 or 96 h of compound incubation, we used the CellTiter-Glo 3D cell viability assay (Promega) to measure the viability of individual organoids, as previously described (Renner et al., [2020]). Briefly, the 96-well plates of AMOs and the reagents were brought to room temperature for 30 min. We adjusted the media volume of each well to 55 μl and added an equal volume (55 μl) of the CellTiter-Glo 3D reagent. Next, the samples were shaken on a Thermomixer (Eppendorf) at 900 rpm for 5 min and then incubated for 25 min at room temperature while protected from light. To minimize signal cross-talk between adjacent wells, we transferred the contents of the clear 96-well culture plates to white/opaque 384-well Lumitrac plates (Greiner) with two technical replicates (20 μl each) per sample, after the incubation. We recorded the luminescence immediately after the transfer using a Synergy Mx plate reader (BioTek).
AMOs were cultured as described above for 47 days. On day 47, we exchanged their medium to tox medium (TM), initially without the addition of any compounds. […] For each compound, we included n = 8 controls per compound treated with the corresponding solvent at an amount equivalent to the highest compound concentration. To assess viability and cell type-specific toxicity in parallel and under the same conditions, we treated all samples with the compounds for 48 h, then exchanged their medium to standard culture medium without compounds and maintained them for an additional 6 days before analysis to allow breakdown and removal of cellular debris. Organoid viability and cell type-specific toxicity were analyzed as described for the primary screens. Here, we acquired five confocal planes spaced 36.6 μm apart in our Operetta high content imager. The image analysis of the AMOs for cell type-specific toxicity assessment required minor adjustments to account for the individual properties of the staining. […] For Map2, we performed Gaussian smoothing with a width of 10 px and omitted the additional sliding parabola filter. The other steps were performed as outlined for the primary cell-type-specific toxicity screen. […] In detail: The dose-response series, including the individual solvent controls, was performed for every compound on a separate 96-well plate of AMOs with initially n = 8 organoids per concentration. […] Data processing, including normalizations, was performed for each individual compound/plate as outlined above for the primary screens. Significant differences between the Map2 and TH content were also determined in GraphPad Prism as described for the primary screen and with the same parameters (multiple comparisons were performed for the different concentrations instead of compounds).

[3] = 0.01-1,000 μM (rotenone up to 100 μM), both AMO lines

Compound | Map2 content (general neurons) [1, 3] | TH content (dopaminergic neurons) [1, 3] | overall toxicity in the dose-response experiments [2] | TH levels compared to Map2 levels ([1]; dose-response, padj < 0.05)
CC(=O)Oc1ccccc1C(=O)O [ASS, acetylsalicylic acid, reference compound] | no impact | no impact | no significant changes at any of the tested concentrations; also recorded: non-toxic across all tested concentrations | 
C=C(C)[C@H]1Cc2c(ccc3c2O[C@@H]2COc4cc(OC)c(OC)cc4[C@@H]2C3=O)O1 [rotenone, reference compound] |  |  |  | significantly reduced TH levels compared to Map2 over a broad range of concentrations
